Measurements as given in US10029984B2, “Mono- or di-substituted indole derivatives as dengue viral replication inhibitors” (Janssen Pharmaceuticals, Inc., priority 2015, dated 2018).

Legend:
[1] = system: DENV-2 16681 strain; experiment: DENV-2 antiviral assay (eGFP-labeled virus in Vero cells); assay type: cell-based, Dengue virus; settings: DENV-2 16681 eGFP, MOI 0.5, 3 days
In short: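 Vero cells were pre-plated with compound overnight, then infected with eGFP-labeled DENV-2 16681 at MOI 0.5 and incubated 3 days at 37 °C. eGFP fluorescence read by automated microscopy; 9-point 4-fold dilutions (25 μM–0.00038 μM final) in quadruplicate, EC50 by linear interpolation versus virus and cell controls.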

[2] = in vitro; assay type: cell-based; settings: African green monkey, CC50
In short: (§1)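 On the same plates after eGFP read-out, resazurin was added and cells incubated a further 5 h at 37 °C, 5% CO2; resorufin fluorescence read with 530 nm excitation. CC50 is the concentration halving resazurin conversion versus cell control; SI = CC50/EC50.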

[3] = system: DENV-1 strain TC974#666; experiment: Tetravalent RT-qPCR assay Protocol A, serotype 1; assay type: cell-based; settings: Dengue virus, DENV1, 72 h; RT-qPCR serotype 1 TC974#666, Vero cells, day 3
Protocol: (§2) The antiviral activity of the compounds of the invention was tested against DENV-1 strain TC974#666 (NCPV; Table 6), DENV-2 strain 16681 (Table 7), DENV-3 strain H87 (NCPV; Table 8) and DENV-4 strains H241 (NCPV; Table 9) in a RT-qPCR assay. Therefore, Vero cells were infected with either DENV-1, or -2, or -3, or -4 in the presence or absence of test compounds. At day 3 post-infection, the cells were lysed and cell lysates were used to prepare cDNA of both a viral target (the 3′UTR of DENV; table 2) and a cellular reference gene (β-actin, table 2). Subsequently, a duplex real time PCR was performed on a Lightcycler480 instrument. The generated Cp value is inversely proportional to the amount of RNA expression of these targets. Inhibition of DENV replication by a test compound result in a shift of Cp's for the 3′UTR gene. On the other hand, if a test compound is toxic to the cells, a similar effect on β-actin expression will be observed. The comparative ΔΔCp method is used to calculate EC50, which is based on the relative gene expression of the target gene (3′UTR) normalized with the cellular housekeeping gene (β-actin).
(§3) The culture medium consisted of minimal essential medium supplemented with 2% of heat-inactivated fetal calf serum, 0.04% gentamycin (50 mg/mL) and 2 mM of L-glutamine. Vero cells, obtained from ECACC, were suspended in culture medium and 75 μL/well was added in 96-well plates (10000 cells/well), which already contain the antiviral compounds. Typically, these plates contain a 4-fold serial dilution of 9 dilution steps of the test compound at 200 times the final concentration in 100% DMSO (500 nL; final concentration range: 25 μM-0.00038 μM). In addition, each plate contains wells which are assigned as virus controls (containing cells and virus in the absence of compound) and cell controls (containing cells in the absence of virus and compound). Once the cells were added in the plates, the plates were incubated in a fully humidified incubator (37° C., 5% CO2) until the next day. Then, DENV-1 strain TC974#666 at an MOI of 0.6, DENV-2 strain 16681 at an MOI of 0.01, DENV-3 strain H87 at an MOI of 1.0 and DENV-4 strains H241 at an MOI of 0.2 and SG/06K2270DK1/2005 at an MOI of 0.16, were added. Therefore, 25 μL of virus suspension was added to all the wells containing test compound and to the wells assigned as virus control. In parallel, 25 μL of culture medium was added to the cell controls. Next, the plates were incubated for 3 days in a fully humidified incubator (37° C., 5% CO2). After 3 days, the supernatant was removed from the wells and the cells were washed twice with ice-cold PBS (˜100 μL). The cell pellets within the 96-well plates were stored at −80° C. for at least 1 day. Next, RNA was extracted using the Cells-to-CT™ lysis kit, according to the manufacture's guideline (Applied Biosystems). The cell lysates can be stored at −80° C. or immediately used in the reverse transcription step.
(§4) In preparation of the reverse transcription step, mix A (table 3A) was prepared and 7.57 μL/well was dispensed in a 96-well plate. After addition of 5 μL of the cell lysates, a five minute denaturation step at 75° C. was performed (table 3B). Afterwards, 7.43 μL of mix B was added (table 3C) and the reverse transcription step was initiated (table 3D) to generate cDNA.
(§5) Finally, a RT-qPCR mix was prepared, mix C (table 4A), dispensed in 96-well LightCycler qPCR plates to which 3 μL of cDNA was added and the qPCR was performed according to the conditions in table 4B on a LightCycler 480. Using the LightCycler software and an in-house LIMS system, dose response curves for each compound were calculated and the half maximal effective concentration (EC50) and the half maximal cytotoxic concentration (CC50) were determined.

[4] = system: DENV-2 strain 16681; experiment: Tetravalent RT-qPCR assay Protocol A, serotype 2; assay type: cell-based; settings: Dengue virus, DENV2, 72 h; RT-qPCR serotype 2 16681, Vero cells, day 3
Protocol: as §2, §3, §4, §5

[5] = system: DENV-3 strain H87; experiment: Tetravalent RT-qPCR assay Protocol A, serotype 3; assay type: cell-based; settings: Dengue virus, DENV3, 72 h; RT-qPCR serotype 3 H87, Vero cells, day 3
Protocol: as §2, §3, §4, §5

[6] = system: DENV-4 strains H241; experiment: Tetravalent RT-qPCR assay Protocol A, serotype 4; assay type: cell-based; settings: Dengue virus, DENV4, 72 h; RT-qPCR serotype 4 H241, Vero cells, day 3
Protocol: as §2, §3, §4, §5

[7] = in vitro; assay type: cell-based; settings: African green monkey, CC50; remark: listed apart in the source
Protocol: as §2, §3, §5

[8] = system: Vero cells; experiment: in vitro; assay type: cell-based; settings: African green monkey
In short: as §1

[9] = system: Vero cells; experiment: in vitro; assay type: cell-based; settings: African green monkey, 3 days
Protocol: as §2, §3, §5

Compound: COc1cc(NC(C(=O)c2c[nH]c3c(C)c(F)ccc23)c2ccc(F)cc2OC)cc(S(C)(=O)=O)c1 (single isomer, unassigned) [Enantiomer 2A, 2-(4-fluoro-2-methoxyphenyl)-1-(6-fluoro-7-methyl-1H-indol-3-yl)-2-((3-methoxy-5-(methylsulfonyl)phenyl)amino)ethanone]
- EC50 ([1]; listed as 2A*): 0.77 nM
- CC50 [2]: 6100 nM
- EC50 [3]: 5.85 nM
- EC50 [4]: 0.856 nM
- EC50 [5]: 58.4 nM
- EC50 [6]: 122 nM
- CC50 at 3 days [7]: 2920 nM

Compound: COc1cc(NC(C(=O)c2c[nH]c3ccc(C(F)(F)F)cc23)c2ccc(F)cc2OC)cc(S(C)(=O)=O)c1 (single isomer, unassigned) [Enantiomer 17B, 2-(4-fluoro-2-methoxyphenyl)-2-((3-methoxy-5-(methylsulfonyl)phenyl)amino)-1-(5-(trifluoromethyl)-1H-indol-3-yl)ethanone]
- EC50 ([1]; listed as 17B*): 0.2 nM
- CC50 [8]: 3600 nM
- EC50 [3]: 0.478 nM
- EC50 [4]: 0.0921 nM
- EC50 [5]: 7.28 nM
- EC50 [6]: 21.3 nM
- CC50 at 3 days [7]: 1610 nM

Compound: COc1cc(NC(C(=O)c2c[nH]c3cc(F)c(C)cc23)c2ccc(F)cc2OC)cc(S(C)(=O)=O)c1 (single isomer, unassigned) [Enantiomer 14A, 2-(4-fluoro-2-methoxyphenyl)-1-(6-fluoro-5-methyl-1H-indol-3-yl)-2-((3-methoxy-5-(methylsulfonyl)phenyl)amino)ethanone]
- EC50 ([1]; listed as 14A*): 0.44 nM
- CC50 [8]: 3400 nM
- EC50 [3]: 1.4 nM
- EC50 [4]: 0.567 nM
- EC50 [5]: 13.1 nM
- EC50 [6]: 69.4 nM
- CC50 at 3 days [7]: 2420 nM

Compound: COc1cc(NC(C(=O)c2c[nH]c3cc(F)c(F)cc23)c2ccc(F)cc2OC)cc(S(C)(=O)=O)c1 (single isomer, unassigned) [Enantiomer 7A, 1-(5,6-difluoro-1H-indol-3-yl)-2-(4-fluoro-2-methoxyphenyl)-2-((3-methoxy-5-(methylsulfonyl)phenyl)amino)ethanone]
- EC50 ([1]; listed as 7A*): 0.76 nM
- CC50 [8]: 4400 nM
- EC50 [3]: 3.7 nM
- EC50 [4]: 0.525 nM
- EC50 [5]: 61.6 nM
- EC50 [6]: 142 nM
- CC50 at 3 days [7]: 3870 nM

Compound: COc1cc(NC(C(=O)c2c[nH]c3cc(C)c(F)cc23)c2ccc(F)cc2OC)cc(S(C)(=O)=O)c1 (single isomer, unassigned) [Enantiomer 9A, 2-(4-fluoro-2-methoxyphenyl)-1-(5-fluoro-6-methyl-1H-indol-3-yl)-2-((3-methoxy-5-(methylsulfonyl)phenyl)amino)ethanone]
- EC50 ([1]; listed as 9A*): 1.1 nM
- CC50 [8]: 4800 nM
- EC50 [3]: 10 nM
- EC50 [4]: 1.14 nM
- EC50 [5]: 104 nM
- EC50 [6]: 241 nM
- CC50 at 3 days [7]: 4040 nM

Compound: COc1cc(NC(C(=O)c2c[nH]c3cc(OC)c(F)cc23)c2ccc(F)cc2OC)cc(S(C)(=O)=O)c1 (single isomer, unassigned) [Enantiomer 11A, 2-(4-fluoro-2-methoxyphenyl)-1-(5-fluoro-6-methoxy-1H-indol-3-yl)-2-((3-methoxy-5-(methylsulfonyl)phenyl)amino)ethanone]
- EC50 ([1]; listed as 11A*): 1.1 nM
- CC50 [8]: 6600 nM
- EC50 [3]: 10.9 nM
- EC50 [4]: 1.09 nM
- EC50 [5]: 93 nM
- EC50 [6]: 226 nM
- CC50 at 3 days [7]: 4380 nM

Compound: COc1cc(NC(C(=O)c2c[nH]c3cc(Cl)ccc23)c2ccc(F)cc2OC)cc(S(C)(=O)=O)c1 (single isomer, unassigned) [Enantiomer 4A, 1-(6-chloro-1H-indol-3-yl)-2-(4-fluoro-2-methoxyphenyl)-2-((3-methoxy-5-(methylsulfonyl)phenyl)amino)ethanone]
- EC50 ([1]; listed as 4A*): 0.5 nM
- CC50 [8]: 4400 nM
- EC50 [3]: 4.22 nM
- EC50 [4]: 0.377 nM
- EC50 [5]: 55.3 nM
- EC50 [6]: 131 nM
- CC50 at 3 days [7]: 3590 nM

Compound: COc1cc(NC(C(=O)c2c[nH]c3c(F)c(F)ccc23)c2ccc(F)cc2OC)cc(S(C)(=O)=O)c1 (single isomer, unassigned) [Enantiomer 13B, 1-(6,7-difluoro-1H-indol-3-yl)-2-(4-fluoro-2-methoxyphenyl)-2-((3-methoxy-5-(methylsulfonyl)phenyl)amino)ethanone]
- EC50 ([1]; listed as 13B*): 1.1 nM
- CC50 [8]: 6700 nM
- EC50 [4]: 0.675 nM
- EC50 [6]: 230 nM
- CC50 at 3 days [7]: 3710 nM
- CC50 [9]: 2600 nM

Compound: COc1cc(NC(C(=O)c2c[nH]c3cc(OC)c(Cl)cc23)c2ccc(F)cc2OC)cc(S(C)(=O)=O)c1 (single isomer, unassigned) [Enantiomer 16A, 1-(5-chloro-6-methoxy-1H-indol-3-yl)-2-(4-fluoro-2-methoxyphenyl)-2-((3-methoxy-5-(methylsulfonyl)phenyl)amino)ethanone]
- EC50 ([1]; listed as 16A*): 0.42 nM
- CC50 [8]: 3700 nM
- EC50 [3]: 3.26 nM
- EC50 [4]: 0.188 nM
- EC50 [5]: 25.4 nM
- EC50 [6]: 80.1 nM
- CC50 at 3 days [7]: 3170 nM
